Here are results for 15 compounds from ChEMBL document CHEMBL3727367, “Hydrazide compounds” (2007).

Structures are written as SMILES. Calls of active or inactive are those of the source. The rule behind the calls is not given here.

Experiment [1] concerns the target T1, Protein-serine/threonine kinase (Sus scrofa) (UniProt F1RUX3).
T1 sequence (whole entry): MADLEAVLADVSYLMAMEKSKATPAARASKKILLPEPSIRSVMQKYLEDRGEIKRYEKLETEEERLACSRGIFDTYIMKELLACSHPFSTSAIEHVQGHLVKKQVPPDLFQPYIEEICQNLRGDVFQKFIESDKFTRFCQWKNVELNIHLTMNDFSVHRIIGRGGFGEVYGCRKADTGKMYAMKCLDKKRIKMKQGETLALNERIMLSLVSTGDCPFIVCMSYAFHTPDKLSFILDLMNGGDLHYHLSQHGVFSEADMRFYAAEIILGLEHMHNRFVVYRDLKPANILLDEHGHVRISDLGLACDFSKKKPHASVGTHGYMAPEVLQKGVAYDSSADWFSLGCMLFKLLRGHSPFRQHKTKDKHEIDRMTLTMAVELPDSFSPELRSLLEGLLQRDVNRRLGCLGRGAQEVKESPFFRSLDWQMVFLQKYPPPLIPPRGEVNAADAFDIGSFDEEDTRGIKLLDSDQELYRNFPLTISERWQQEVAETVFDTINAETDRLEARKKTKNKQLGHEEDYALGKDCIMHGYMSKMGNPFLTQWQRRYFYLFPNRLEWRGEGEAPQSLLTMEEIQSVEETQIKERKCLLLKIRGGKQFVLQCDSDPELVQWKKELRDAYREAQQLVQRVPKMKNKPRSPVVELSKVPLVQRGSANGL
The experiment is described as follows: Inhibition of GRK2 in porcine trabecular meshwork cells assessed as F-actin depolymerization at 50 uM after 20 mins by Alexa-fluor 488-labelled phalloidin/DAPI staining assay relative to control.

Experiment [2] addresses T2, Beta-adrenergic receptor kinase 1 (Homo sapiens, UniProt P25098).
T2 sequence (P25098 whole entry): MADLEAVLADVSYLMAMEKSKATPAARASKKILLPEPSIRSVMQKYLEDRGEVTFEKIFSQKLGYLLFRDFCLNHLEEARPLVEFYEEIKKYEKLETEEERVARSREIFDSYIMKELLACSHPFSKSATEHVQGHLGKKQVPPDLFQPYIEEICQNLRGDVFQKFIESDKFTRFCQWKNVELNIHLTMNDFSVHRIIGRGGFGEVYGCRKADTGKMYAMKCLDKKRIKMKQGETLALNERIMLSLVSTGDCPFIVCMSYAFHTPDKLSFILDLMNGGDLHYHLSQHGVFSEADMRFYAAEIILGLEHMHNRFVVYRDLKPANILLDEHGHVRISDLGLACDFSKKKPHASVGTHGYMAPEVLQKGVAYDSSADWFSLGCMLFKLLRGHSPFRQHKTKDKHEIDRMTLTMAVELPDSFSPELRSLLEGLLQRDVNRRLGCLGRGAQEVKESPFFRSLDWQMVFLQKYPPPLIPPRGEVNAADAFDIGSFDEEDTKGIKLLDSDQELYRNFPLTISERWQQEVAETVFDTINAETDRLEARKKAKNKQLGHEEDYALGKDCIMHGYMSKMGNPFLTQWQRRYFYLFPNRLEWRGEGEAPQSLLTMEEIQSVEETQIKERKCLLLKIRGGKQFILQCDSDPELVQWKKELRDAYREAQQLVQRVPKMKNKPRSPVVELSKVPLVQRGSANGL
The experiment is described as follows: Inhibition of human GRK2 after 90 to 120 mins by Kinase-Glo assay. A general note: Kinase-Glo measures the ATP left after a reaction by luminescence.

The target of experiment [3] is G protein-coupled receptor kinase 6 (Homo sapiens, UniProt P43250). Briefly: Inhibition of GRK6 (unknown origin) after 90 to 120 mins by Kinase-Glo assay.
Sequence of G protein-coupled receptor kinase 6 (P43250 whole entry): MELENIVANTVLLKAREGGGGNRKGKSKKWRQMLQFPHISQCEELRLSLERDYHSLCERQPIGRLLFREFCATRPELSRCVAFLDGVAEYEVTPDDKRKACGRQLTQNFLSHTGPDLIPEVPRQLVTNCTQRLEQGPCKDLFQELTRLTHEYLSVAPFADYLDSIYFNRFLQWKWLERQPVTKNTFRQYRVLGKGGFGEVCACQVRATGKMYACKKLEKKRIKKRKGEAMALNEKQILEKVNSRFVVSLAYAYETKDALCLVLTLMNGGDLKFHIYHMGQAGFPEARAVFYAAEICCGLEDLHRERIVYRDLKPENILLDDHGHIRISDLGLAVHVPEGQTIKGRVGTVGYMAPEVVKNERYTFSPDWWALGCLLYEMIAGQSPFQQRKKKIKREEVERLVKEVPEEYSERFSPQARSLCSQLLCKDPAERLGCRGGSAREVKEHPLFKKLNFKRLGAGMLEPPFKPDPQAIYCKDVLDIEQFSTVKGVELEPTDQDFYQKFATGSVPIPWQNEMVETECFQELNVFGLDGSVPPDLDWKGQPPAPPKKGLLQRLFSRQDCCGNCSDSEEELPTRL
Experiment [4] concerns the target T3, Beta-adrenergic receptor kinase 1 (Homo sapiens) (UniProt P25098).
T3 sequence (whole entry): T2 sequence (P25098 whole entry)
The experiment is described as follows: Inhibition of GRK2 in HEK293 cells overexpressing beta 2 adrenergic receptor assessed as increase in c-AMP accumulation in presence of isoproterenol. In kind it is cell-based.

In experiment [5] the test system is Felis catus. Briefly: Antiglaucoma activity in cat assessed as decrease of redness administered topically. It is filed as functional, organism-based.
Experiment [6] relates to Felis catus. Briefly: Antiglaucoma activity in cat assessed as decrease of ocular irritation administered topically. It is filed as functional, organism-based. The conditions noted are these: Eye.
Experiment [7] relates to Felis catus. The experiment is described as follows: Antiglaucoma activity in cat assessed as decrease of hyperemia administered topically. It is filed as functional, organism-based.
Experiment [8] deals with Felis catus. The experiment is described as follows: Antiglaucoma activity in cat assessed as decrease in intraocular pressure administered topically twice per day on eye measured after 1 to 23 hrs by pneumatonometer. It is filed as functional, organism-based.
The test system of experiment [9] is Felis catus. The experiment is described as follows: Antiglaucoma activity in cat assessed as decrease of allergic symptoms administered topically twice per day on eye. In kind it is functional, organism-based.
Experiment [10] deals with Felis catus. Briefly: Antiglaucoma activity in cat assessed as decrease of dry eye syndrome administered topically twice per day on eye. In kind it is functional, organism-based.
In experiment [11] the target is G protein-coupled receptor kinase 5 (Homo sapiens, UniProt P34947). The experiment is described as follows: Inhibition of GRK5 (unknown origin) after 90 to 120 mins by Kinase-Glo assay.
Sequence of G protein-coupled receptor kinase 5 (P34947 whole entry): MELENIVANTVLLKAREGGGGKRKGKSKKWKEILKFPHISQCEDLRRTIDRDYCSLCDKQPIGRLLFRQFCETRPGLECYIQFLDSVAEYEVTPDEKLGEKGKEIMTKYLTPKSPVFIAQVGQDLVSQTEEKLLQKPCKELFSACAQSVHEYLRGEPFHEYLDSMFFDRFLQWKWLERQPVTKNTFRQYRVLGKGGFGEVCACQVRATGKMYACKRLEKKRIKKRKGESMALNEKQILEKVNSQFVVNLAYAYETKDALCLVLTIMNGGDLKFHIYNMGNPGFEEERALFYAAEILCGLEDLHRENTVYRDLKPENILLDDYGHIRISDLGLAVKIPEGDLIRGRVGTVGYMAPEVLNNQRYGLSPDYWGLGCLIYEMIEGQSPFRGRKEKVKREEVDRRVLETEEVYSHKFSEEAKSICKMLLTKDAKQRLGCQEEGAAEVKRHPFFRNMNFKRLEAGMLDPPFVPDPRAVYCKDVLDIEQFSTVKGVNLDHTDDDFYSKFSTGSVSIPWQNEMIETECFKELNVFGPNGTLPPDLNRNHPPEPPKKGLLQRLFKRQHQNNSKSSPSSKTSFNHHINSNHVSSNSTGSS
The subject of experiment [12] is Felis catus. The experiment is described as follows: Antiglaucoma activity in cat assessed as decrease in intraocular pressure administered topically 4 times per day on eye measured after 1 to 23 hrs by pneumatonometer. It is filed as functional, organism-based.

On to `COc1ccc(Oc2cccc(NCC(=O)NN=Cc3ccncc3)c2)cc1` (mixture of isomers), for which the “GRK2 inhibition activity call (active/not active)” value in experiment [1] is “inactive”.
As for `CCc1cccc(NCC(=O)N/N=C/c2c(Cl)cncc2Cl)c1`, the Ki in experiment [2] was > 10 µM.
Consider `O=C(CNc1cccc(C(=O)NCCN2CCOCC2)c1)N/N=C/c1c(Cl)cncc1Cl`, for which, in experiment [1], the “GRK2 inhibition activity call (active/not active)” value is “inactive”.
For the compound `O=C(CNc1cccc(OCc2ccccc2)c1)N/N=C/c1ccncc1`, in [3], the Ki was > 10 µM.
Turning to `O=C(CNc1ccc(Oc2ccccc2)cc1)N/N=C/c1c(Cl)cncc1Cl`, the “GRK2 inhibition activity call (active/not active)” value in [1] is “inactive”.
Consider `NC(=O)c1cccc(NCC(=O)N/N=C/c2ccncc2)c1`, for which the inhibition result in [4] was “Active”. Moreover, the result in the experiment with Felis catus [5], with Felis catus [6] and in the experiment with Felis catus [7] was Active.
As to `O=C(CNc1cccc(C(=O)Nc2ccccc2)c1)N/N=C/c1c(Cl)cncc1Cl`, the “GRK2 inhibition activity call (active/not active)” value in experiment [1] is “Active”. Besides, the Ki in experiment [3] is > 10 µM.
For `NC(=O)c1ccc(NCC(=O)N/N=C/c2c(Cl)cncc2Cl)cc1`, in the experiment with Felis catus [8], the outcome was Active.
With `CNC(=O)c1cccc(NCC(=O)N/N=C/c2c(Cl)cncc2Cl)c1`, the “GRK2 inhibition activity call (active/not active)” value in [1] was “inactive”.
With `O=C(CNc1cccc(C(=O)Nc2cccnc2)c1)N/N=C/c1ccncc1`, the “GRK2 inhibition activity call (active/not active)” value in experiment [1] was “Active”.
Take `Cc1ccc(Oc2cccc(NCC(=O)N/N=C/c3ccncc3)c2)cc1`: the result in the experiment on Felis catus [9] and in the experiment on Felis catus [10] was Active.
Turning to `O=C(CNc1cccc(C(=O)Nc2ccccc2)c1)N/N=C/c1ccncc1`, the “GRK2 inhibition activity call (active/not active)” value in experiment [1] was “Active”. Also, the Ki in experiment [11] is > 10 µM.
Take `C/C(=N\NC(=O)CNc1cccc(C(=O)Nc2ccccc2)c1)c1ccncc1`: in experiment [1], the “GRK2 inhibition activity call (active/not active)” value is “inactive”.
For the compound `O=C(CNc1cccc(C(=O)NCCN2CCOCC2)c1)N/N=C/c1ccncc1`, the result in the experiment on Felis catus [12] was Active.
In the case of `COc1cc(/C=N/NC(=O)CNc2cccc(Cl)c2)nc(OC)n1`, the “GRK2 inhibition activity call (active/not active)” value in experiment [1] was “inactive”.

One may read the Ki as a measure of affinity in units of concentration, obtained from inhibition or displacement.
